The values below come from patent US20210292438A1, “CONDITIONAL INTERNALIZATION OF PEGYLATED AGENTS BY PRETARGETING BI-SPECIFIC PEG-BINDING ANTIBODIES FOR DIAGNOSIS AND THERAPY” (ACADEMIA SINICA, priority 2017, published 2021).

Structures are written as SMILES.

The test system of data set [1] is human MDA-MB-468 TNBC or MDA-MB-231 TNBC xenografts. The data set can be described thus: Anti-tumor activity of pre-targeted PEG engager in xenografts. The data set is classed as in vivo, SCID mice. The conditions noted are these: i.v. once a week for 4 weeks; engager 5 h before drug; free doxorubicin 3 mg/kg, Doxisome 1 mg/kg. The method, then:
Anti-tumor activity of PEG engager was tested in mice bearing human MDA-MB-468 TNBC or MDA-MB-231 TNBC xenografts following the procedure below.
Groups of severe combined immunodeficiency (SCID) mice bearing 44.7±10.7 mm^3 MDA-MB-231 (n=6) or 84.3±4.3 mm^3 subcutaneous MDA-MB-468 (n=8) tumors on their right flanks were intravenously injected with PBS or with 6 or 18 mg/kg PEG engagers. After 5 h, the mice were intravenously administrated with free doxorubicin (3 mg/kg) or Doxisome (1 mg/kg or 3 mg/kg). This treatment was repeated once a week for a total of 4 weeks. Tumour sizes were measured every 7 days.

The conditions of data set [2]: SCID mice; cited from earlier work.

`COc1cccc2c1C(=O)c1c(O)c3c(c(O)c1C2=O)C[C@@](O)(C(=O)CO)C[C@@H]3O[C@H]1C[C@H](N)[C@H](O)[C@H](C)O1` [doxorubicin]: the tumor growth result in data set [1] is listed as “suppressed tumor growth”. The maximum-tolerated dose in data set [2] is 2.5 to 3 mg/kg.
